US20020137929A1, “1 - (3-heterocyclylphenyl) isothiourea, -isourea, -guanidine and -amidine herbicidal agents” (Intellectual Property Department, BASF Aktiengesellschaft, priority 1998, published 2002)

Legend:
[1] = test system: ABUTH (Velvetleaf); experiment: Postemergence herbicidal evaluation; type: in vivo, Abutilon theophrasti; conditions: postemergence
In short: (§1)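 Rate range approx. 0.0156–0.500 kg/ha. Foliar application at 40 psi to ~2-week seedlings; surfactant 0.5% TWEEN 20 in 50/50 acetone/water. Evaluation 4–5 wk post-treatment by 0–9 visual injury score, means of replicate tests.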

[2] = test system: SETVI (Foxtail, Green); experiment: Preemergence herbicidal evaluation; type: in vivo, Setaria viridis; conditions: rated 4-5 weeks after treatment
In short: (§2)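 Greenhouse preemergence test: seed-soil mix sown on ~1 inch soil; aqueous acetone spray at equivalent of ~0.0156–0.500 kg/ha; greenhouse-held and watered; scored 0–9 visually at 4–5 weeks.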

[3] = test system: IPOHE (Morningglory, Ivyleaf); experiment: Preemergence herbicidal evaluation; type: in vivo, Ipomoea hederacea; conditions: rated 4-5 weeks after treatment
In short: as §2

[4] = test system: MOOVA (Monochoria); experiment: Preemergence weed control under flooded paddy conditions; type: in vivo, Monochoria vaginalis; conditions: rated 3-4 weeks after treatment
In short: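 Ratings on a 0-9 visual scale cover stand, vigor, malformation, size, chlorosis and overall appearance relative to a control, taken three to four weeks post-treatment. Application was into flood water over freshly sown silt loam at roughly 0.0313 to 0.500 kg/ha.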

[5] = test system: CHEAL (Lambsquarters, Common); experiment: Preemergence herbicidal evaluation; type: in vivo, Chenopodium album; conditions: rated 4-5 weeks after treatment
In short: as §2

[6] = test system: CYPIR (Rice Flatsedge); experiment: Postemergence weed control under flooded paddy conditions; type: in vivo, Cyperus iria; conditions: postemergence weeds, 3-4 weeks after treatment
In short: (§3)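 Containers holding 3–5 cm weeds and rice at 1.5–2.5 leaves are flooded to 1.5–3 cm above soil. Compound in 50/50 v/v aqueous/acetone is then added directly to the water, about 0.0313–0.500 kg/ha. Plants are kept in the greenhouse and rated 0–9 visually at 3–4 weeks.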

[7] = test system: ECHORC (Watergrass (Calif.)); experiment: as above; type: in vivo, Echinochloa oryzoides; conditions: postemergence weeds, 3-4 weeks after treatment
In short: as §3

[8] = test system: TRZAWR (Wheat, Winter, cv Riband); experiment: Preemergence herbicidal evaluation; type: in vivo, Triticum aestivum; conditions: rated 4-5 weeks after treatment
In short: as §2

[9] = test system: ORYSAT (Rice, Tebonnet); experiment: Preemergence herbicidal evaluation; type: in vivo, Oryza sativa, (L.) Tebonnet; conditions: rated 4-5 weeks after treatment
In short: as §2

[10] = test system: TRZAWR (Wheat, Winter, cv Riband); experiment: Postemergence herbicidal evaluation; type: in vivo, Triticum aestivum; conditions: postemergence
In short: as §1

[11] = test system: ECHORC (Watergrass (Calif.)); experiment: Preemergence weed control under flooded paddy conditions; type: in vivo, Echinochloa oryzoides; conditions: rated 3-4 weeks after treatment
In short: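 Seeds or propagules sown in silt loam kept flooded 1.5-3 cm; compounds in 50/50 acetone/water pipetted into flood water at about 0.0313 to 0.500 kg/ha. Greenhouse; visual 0-9 rating versus untreated control 3-4 weeks after treatment.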

[12] = test system: IPOHE (Morningglory, Ivyleaf); experiment: Postemergence herbicidal evaluation; type: in vivo, Ipomoea hederacea; conditions: postemergence
In short: as §1

[13] = test system: ECHCG (Barnyardgrass); experiment: Preemergence herbicidal evaluation; type: in vivo, Echinochloa crus-galli; conditions: rated 4-5 weeks after treatment
In short: as §2

## CC1SC(=Nc2cc(-n3c(=O)cc(C(F)(F)F)n(C)c3=O)c(F)cc2Cl)N(C)C1=O (stereo not shown) [Compound 9]
[1]; rate 0.0156 kg/ha
  ABUTH herbicidal rating: 9.0
[1]; rate 0.0313 kg/ha
  ABUTH herbicidal rating: 9.0
[1]; rate 0.0625 kg/ha
  ABUTH herbicidal rating: 9.0
[1]; rate 0.1250 kg/ha
  ABUTH herbicidal rating: 9.0
[2]; rate 0.0156 kg/ha
  SETVI preemergence herbicidal rating: 8.3
[2]; rate 0.0313 kg/ha
  SETVI preemergence herbicidal rating: 9.0
[2]; rate 0.0625 kg/ha
  SETVI preemergence herbicidal rating: 9.0
[2]; rate 0.1250 kg/ha
  SETVI preemergence herbicidal rating: 9.0
[2]; rate 0.2500 kg/ha
  SETVI preemergence herbicidal rating: 9.0
[3]; rate 0.0156 kg/ha
  IPOHE preemergence herbicidal rating: 5.0
[3]; rate 0.0313 kg/ha
  IPOHE preemergence herbicidal rating: 7.7
[3]; rate 0.0625 kg/ha
  IPOHE preemergence herbicidal rating: 7.0
[3]; rate 0.1250 kg/ha
  IPOHE preemergence herbicidal rating: 9.0
[3]; rate 0.2500 kg/ha
  IPOHE preemergence herbicidal rating: 9.0
[4]; 0.0313 kg/ha
  Herbicidal rating MOOVA: 9.0
[4]; 0.0625 kg/ha
  Herbicidal rating MOOVA: 9.0
[4]; 0.1250 kg/ha
  Herbicidal rating MOOVA: 9.0
[4]; 0.2500 kg/ha
  Herbicidal rating MOOVA: 9.0
[5]; rate 0.0156 kg/ha
  CHEAL preemergence herbicidal rating: 9.0
[5]; rate 0.0313 kg/ha
  CHEAL preemergence herbicidal rating: 9.0
[5]; rate 0.0625 kg/ha
  CHEAL preemergence herbicidal rating: 9.0
[5]; rate 0.1250 kg/ha
  CHEAL preemergence herbicidal rating: 9.0
[5]; rate 0.2500 kg/ha
  CHEAL preemergence herbicidal rating: 9.0
[6]; rate 0.0313 kg/ha
  Herbicidal rating CYPIR: 0.0
[6]; rate 0.0625 kg/ha
  Herbicidal rating CYPIR: 2.0
[6]; rate 0.1250 kg/ha
  Herbicidal rating CYPIR: 4.0
[6]; rate 0.2500 kg/ha
  Herbicidal rating CYPIR: 6.0
[7]; rate 0.0313 kg/ha
  Herbicidal rating ECHORC: 0.0
[7]; rate 0.0625 kg/ha
  Herbicidal rating ECHORC: 2.0
[7]; rate 0.1250 kg/ha
  Herbicidal rating ECHORC: 4.0
[7]; rate 0.2500 kg/ha
  Herbicidal rating ECHORC: 7.0
[8]; rate 0.0156 kg/ha
  TRZAWR preemergence herbicidal rating: 4.0
[8]; rate 0.0313 kg/ha
  TRZAWR preemergence herbicidal rating: 7.0
[8]; rate 0.0625 kg/ha
  TRZAWR preemergence herbicidal rating: 7.5
[8]; rate 0.1250 kg/ha
  TRZAWR preemergence herbicidal rating: 9.0
[8]; rate 0.2500 kg/ha
  TRZAWR preemergence herbicidal rating: 9.0
[9]; rate 0.0156 kg/ha
  ORYSAT preemergence herbicidal rating: 5.5
[9]; rate 0.0313 kg/ha
  ORYSAT preemergence herbicidal rating: 8.5
[9]; rate 0.0625 kg/ha
  ORYSAT preemergence herbicidal rating: 7.5
[9]; rate 0.1250 kg/ha
  ORYSAT preemergence herbicidal rating: 9.0
[9]; rate 0.2500 kg/ha
  ORYSAT preemergence herbicidal rating: 9.0
[10]; rate 0.0156 kg/ha
  TRZAWR herbicidal rating: 3.3
[10]; rate 0.0313 kg/ha
  TRZAWR herbicidal rating: 3.5
[10]; rate 0.0625 kg/ha
  TRZAWR herbicidal rating: 4.3
[10]; rate 0.1250 kg/ha
  TRZAWR herbicidal rating: 5.0
[11]; 0.0313 kg/ha
  Herbicidal rating ECHORC: 0.0
[11]; 0.0625 kg/ha
  Herbicidal rating ECHORC: 2.0
[11]; 0.1250 kg/ha
  Herbicidal rating ECHORC: 4.0
[11]; 0.2500 kg/ha
  Herbicidal rating ECHORC: 7.0
[12]; rate 0.0156 kg/ha
  IPOHE herbicidal rating: 4.0
[12]; rate 0.0313 kg/ha
  IPOHE herbicidal rating: 7.0
[12]; rate 0.0625 kg/ha
  IPOHE herbicidal rating: 9.0
[12]; rate 0.1250 kg/ha
  IPOHE herbicidal rating: 9.0
[13]; rate 0.0156 kg/ha
  ECHCG preemergence herbicidal rating: 5.7
[13]; rate 0.0313 kg/ha
  ECHCG preemergence herbicidal rating: 8.3
[13]; rate 0.0625 kg/ha
  ECHCG preemergence herbicidal rating: 8.7
[13]; rate 0.1250 kg/ha
  ECHCG preemergence herbicidal rating: 9.0
[13]; rate 0.2500 kg/ha
  ECHCG preemergence herbicidal rating: 9.0
